Measurements as given in patent US20260151398A1, “COMPOUNDS FOR REDUCING CHOLESTEROL AND TREATING LIVER AND KIDNEY DISEASE” (McMaster University, priority 2021, published 2026).
“Also recorded” adds a separate entry of the source.

Assays:
calnexin = test: Calnexin protein expression in HuH7 cells (immunoblot); assay type: cell-based, human
Method: Cells were washed in phosphate-buffered saline (PBS), lysed in 4× SDS-PAGE lysis buffer and separated on 7-10% polyacrylamide gels in denaturing conditions. Gels were transferred to nitrocellulose membranes using the BioRad mini trans-blot system, blocked in 5% skim milk in tris-buffered saline (TBS) for 1 h and incubated in primary antibody overnight for 16 h at 4° C. Membranes were then exposed to horse radish peroxidase conjugated secondary antibodies and visualized using EZ-ECL chemiluminescent reagent (Froggabio). Band intensities were quantified using ImageJ software ([…]) against membranes reprobed for housekeeping proteins.
Among the many intracellular effects of CF on the cell, its ability to increase intracellular Ca^2+ levels is well-studied (Echeverri, D., et al., 2010). […] ER Ca^2+ levels were then examined in cells transfected with D1ER; a genetically-encoded ER-resident fluorescence resonance energy transfer (FRET)-based […] chameleon Ca^2+ sensor, which increases in fluorescence intensity upon Ca^2+ binding (Palmer, A. E., et al., 2004). The low-affinity Ca^2+ indicator, Mag-Fluo-4, was also utilized for the direct assessment of ER Ca^2+ and increases in fluorescence intensity upon Ca^2+ binding (Diercks, B. P., et al., 2017; Lebeau, P., et al., 2021). […] ER Ca^2+ content was also assessed indirectly with the high affinity Ca^2+ dye, fura-2-AM (FIG. 6 B). […]

LDLR = LDLR / CD36 expression in cultured hepatocytes; assay type: cell-based, human
Description: Cells were washed in phosphate-buffered saline (PBS), lysed in 4× SDS-PAGE lysis buffer and separated on 7-10% polyacrylamide gels in denaturing conditions. […] Membranes were then exposed to horse radish peroxidase conjugated secondary antibodies and visualized using EZ-ECL chemiluminescent reagent (Froggabio). Band intensities were quantified using ImageJ software ([…]) against membranes reprobed for housekeeping proteins.
Slides were then mounted with permafluor and visualized using the EVOS FL colour imaging system at either 20 or 40× magnification.
RNA purification/isolation was performed using RNeasy mini kits (Qiagen) and normalized to 2 μg RNA using a NanoDrop® spectrophotometer. Samples were then reverse transcribed into cDNA using Superscript Vilo cDNA Synthesis kit (Thermofisher Scientific). Real-time PCR was executed with Fast SYBR Green (Thermo Fisher Scientific) using the ΔΔct method on the ViiA7 real-time PCR platform (Thermofisher Scientific).
The uptake and accumulation of DiI-LDL was then quantified using a fluorescent spectrophotometer (Molecular Devices). […] Live-cell staining of the LDLR was also performed in HepG2 cells exposed to DiI-LDL (FIG. 11 D).

[1] = system: Pcsk9+/+ and Pcsk9−/− mice; details: CF 8 h
Method: All animal studies were carried out in 8 h-fasted male wild-type, Pcsk9^−/− or Ampkβ1^−/− mice on the C57BL/6J background. CF (25-100 mg/kg-8 h) and CDN (50 mg/kg) treatments were administered via intraperitoneal injection unless specified otherwise. Primary mouse hepatocytes were isolated using a two-step process with EGTA ([…] in HEPES buffer, Sigma Aldrich) and collagenase (0.05% in HEPES buffer, Sigma Aldrich) in 12-week-old male mice on the C57BL/6J background. Cells were then washed, centrifuged, and plated following isolation in cell strainers. Hepatosure® 100-donor pooled primary human hepatocytes were purchased from Xenotech. Primary hepatocytes were regularly grown in William's E medium (Gibco, Thermo Fisher Scientific) containing 10% fetal bovine serum, 100 IU/ml penicillin, and 100 µg/ml streptomycin.

PCSK9 [2] = test: Secreted PCSK9 levels in HepG2 cells (ELISA); assay type: cell-based, human
Method: HuH7 and HepG2 cells were routinely grown in complete Dulbecco's Modified Eagle's Medium (Gibco, Thermofisher Scientific) supplemented with 10% fetal bovine serum (Sigma-Aldrich) and 100 U/ml of penicillin and streptomycin (Sigma-Aldrich). […] All cell treatments were carried out for 24 h unless otherwise stated. Cells were transfected with a cocktail consisting of plasmid DNA (1 μg), X-tremeGENE HP (3 μl; Thermofisher Scientific) and opti-MEM (100 μl; Thermofischer Scientific) per 1 ml complete medium containing plated cells. Human PCSK9 was overexpressed using the bicistronic pIRES-EGFP plasmid; calnexin using the mPA-GFP-N1 plasmid. To block the expression of GRP78 and CD36, siGENOME smartpool siRNA was purchased from GE Dharmacon (M-008198-02 and L-010206-00-0005 respectively) and transfected using lipofectamine RNAiMAX as per manufacturer's protocol.
(§1) Secreted PCSK9 levels were assessed directly in cell culture medium of cells grown in FBS-free medium for 24 h or in the serum isolated from either mice or human subjects. Mouse PCSK9 was measured using the Quantikinine® ELISA kit (#MCP900, R&D Systems) and human PCSK9 using the PCSK9 Quantikinine® ELISA kit (#DCP900, R&D Systems). Serum ApoB levels were also quantified using ELISAs (#DAPB00, R&D Systems). Serum samples were diluted as per manufacturer's instructions.
CF, however, is a well-characterized compound having several health benefits with few known adverse effects. Achieving an optimal level of PCSK9 inhibition absent of the neuro-excitatory effect of CF, however, may be a challenge for the long-term clinical application of these findings. […] See Table 6 for the structure activity relationships of several other known xanthine-based compounds explored at varying doses in HepG2 cells for 24 h.

PCSK9 [3] = test: Plasma PCSK9 in healthy human subjects after oral CF; assay type: in vivo; details: fasted healthy subjects, 400 mg orally (~5 mg/kg)
Method: as §1
Healthy human subjects between the ages of 22 and 45 underwent fasting for 12 h prior to oral administration of 400 mg CF (˜5 mg/kg). Blood was collected prior to administration and at h 2 and 4 following administration.
Given that CF is among the most commonly consumed pharmacologically active compounds in the world (8), its ability to affect PCSK9 levels in fasted healthy volunteers was assessed. Serum was collected prior to, as well as 2- and 4-h post CF treatment (400 mg orally; ˜5 mg/kg). Consistent with the observations in cultured hepatocytes and in mice, CF reduced plasma PCSK9 levels in healthy subjects by 25% (n=12) and 21% (n=8) at the 2- and 4-h time points, respectively (FIG. 11 A and B).

Compound | calnexin protein expression (calnexin) | LDLR mRNA transcript levels (LDLR; HuH7 and HepG2) | expression of PCSK9-regulated receptors (LDLR, CD36) (LDLR; cultured hepatocytes, CF 200 μM, immunoblots) | hepatic and serum DiI fluorescence in Pcsk9−/− mice [1] | PCSK9 secretion from cells transfected with CMV-driven PCSK9 vector (PCSK9 [2]; HepG2, CF 1 mM, listed as CF) | PCSK9 secretion in Ca^2+-deficient medium (PCSK9 [2]; HepG2, Ca^2+-deficient medium 48 h) | reduction of plasma PCSK9 levels at 2 h (PCSK9 [3]; 2 h) [%] | reduction of plasma PCSK9 levels at 4 h (PCSK9 [3]; 4 h) [%]
C/C=C(/C)C(=O)O[C@H]1C(C)=C2[C@H]([C@@H]1OC(=O)CCCCCCC)[C@@](C)(OC(C)=O)C[C@H](OC(=O)CCC)[C@@]1(O)[C@H]2OC(=O)[C@@]1(C)O [TG, thapsigargin] | blocked |  |  |  |  |  |  | 
Cn1c(=O)c2c(ncn2C)n(C)c1=O [caffeine, 1,3,7-Trimethylxanthine] | induced | reduced mRNA transcript levels of the LDLR | increased the expression of PCSK9-regulated receptors | failed to affect these parameters | failed to block the secretion of PCSK9; also recorded: does not affect CMV-driven PCSK9 expression | failed to antagonize PCSK9 secretion | 25 | 21
